US12285524B2, “Sustained-release pharmaceutical compositions comprising an antipsychotic drug and uses thereof” (priority 2018, dated 2025)

Test: in vivo
Conditions: female, Sprague-Dawley, rat, sc, 10 mg/kg
Experimental: The rats were housed in a holding room which operated on a 12-hr light/12-hr dark circadian cycle with free access to water and food.
Plasma samples were obtained by centrifugation, kept frozen at −80° C. and analyzed using a noncompartmental analysis model in PKSolver (Comput Methods Programs Biomed. 2010; 99(3):306-314).

Cc1nc2n(c(=O)c1CCN1CCC(c3noc4cc(F)ccc34)CC1)CCCC2 [Risperidone, risperidone]
AUC(0-inf): 13300 ng·h/mL | AUC(0-t): 13200 ng·h/mL | Cmax: 4510 ng/mL | drug released, indicated by AUC0-t (8 h): 100%
